Laboratory results reported in patent publication US9562085B2, “Antimicrobial peptide” (priority 2013, dated 2017).
Non-standard residues stand in square brackets, D forms with d. Residues, ends and D or L forms follow the SMILES beside them. *: point of attachment. X2 = NC(=O)OCCOCCOCCOCCOCCOCCOCCOCCOCCOCCOCCN*; Myristoyl = CCCCCCCCCCCCCC(=O)*

Experiments:
MRSA LUH14616 = assay: In vitro killing assay on mid-log phase bacteria, MRSA LUH14616; format: cell-based, Staphylococcus aureus; conditions: MRSA LUH14616 in PBS, 1 hour at 37° C.; 90% Inhibitory Concentration, linear regression
Description: The clinical isolate of methicillin-resistant Staphylococcus aureus (MRSA), LUH14616 was kindly provided by Dr. S. Croes, Maastricht University Medical Center, Maastricht, Netherlands (see S.B.M.C. Croes, Microbiol. 2009; 9:229. doi: 10.1186/1471-2180-9-229) and that of mupirocine-resistant MRSA LUH15051 was a gift from Dr. M.E.O.C. Heck (Laboratory for Infectious Diseases and Screening, National Institute for Public Health and Environment, RIVM, Bilthoven, Netherlands).
Bacteria were stored at -80° C. until use. Inoculi of mid-log phase bacteria were prepared by incubating isolated MRSA colonies from blood agar plates in Tryptic Soy Broth (TSB) medium (Becton Dickinson, Le Pont de Clax, France) for 2.5 hours and then diluted to the concentration needed.
For the in vitro killing assay on mid-log phase bacteria, MRSA LUH14616 and MRSA LUH15051 were resuspended to a concentration of 1×10^6 bacteria/ml in PBS. Subsequently, 200 μl was added to a concentration range of peptides LL-37, P60.4Ac (OP-145) and P10 that were lyophilized in advance. Subsequently, the bacteria-peptide mixture was incubated for 1 hour at 37° C. To establish the killing capacity of these peptides, the suspensions were serially diluted and plated onto DST agar plates to measure viable CFU counts. IC90, IC99 and IC99.9 values are calculated by linear regression analysis.

S. aureus JAR = format: cell-based; conditions: JAR, 2 h
Method: S. aureus JAR is described in Campoccia et al. (Int. J. Artif. Organs, 2008 September; 31(9):841-7).
For the in vitro killing assay with P10 variants, S. aureus JAR ([…] CFU/ml) were incubated for 2 hours at 37° C. with various concentrations of the peptides in PBS or in PBS/human plasma (1/1, v/v). […] The LC99.9 is the average value of two independent experiments.

Row | Compound | IC90 (MRSA LUH14616) [nM] | LC99.9 (μM) (50% plasma) (S. aureus JAR) [µM] | LC99.9 (μM) (PBS) (S. aureus JAR) [µM]
1 | Ac-IGKEFKRIVERIKRFLRELVRPLR-NH2 (N-terminus and C-terminus assumed) [Peptide P60.4Ac, reference compound] | 750 | – | –
2 | CCCCCCCCCCCCCC(=O)N[C@@H](CC(C)C)C(=O)N[C@@H](C)C(=O)N[C@@H](CCCNC(=N)N)C(=O)N[C@@H](CCC(=O)O)C(=O)N[C@@H](Cc1ccc(O)cc1)C(=O)N[C@@H](CCCCN)C(=O)N[C@@H](CCCCN)C(=O)N[C@H](C(=O)N[C@H](C(=O)N[C@@H](CCC(=O)O)C(=O)N[C@@H](CCCCN)C(=O)N[C@@H](CC(C)C)C(=O)N[C@@H](CCCCN)C(=O)N[C@@H](CCCNC(=N)N)C(=O)N[C@@H](Cc1c[nH]c2ccccc12)C(=O)N[C@@H](CC(C)C)C(=O)N[C@@H](CCCNC(=N)N)C(=O)N[C@@H](CCC(N)=O)C(=O)N[C@H](C(=O)N[C@@H](CC(C)C)C(=O)N[C@@H](CCCNC(=N)N)C(=O)N[C@H](C(=O)N[C@@H](CC(C)C)C(=O)N[C@@H](CCCNC(=N)N)C(N)=O)[C@@H](C)O)C(C)C)C(C)C)[C@@H](C)CC [Peptide 1302-10, uLAREYKKIVEKLKRWLRQVLRTLRB] (Myristoyl-LAREYKKIVEKLKRWLRQVLRTLR-NH2) | – | 102.4 | 2.0
3 | Ac-EYKKIVEKLKRWLRQVLR-NH2 [Peptide 1302-61, JEYKKIVEKLKRWLRQVLRB] | – | 102.4 | 2.4
4 | Ac-LAREYKRIVEKLKRWLRQVLRTLR-NH2 [Peptide 1302-29, JLAREYKRIVEKLKRWLRQVLRTLRB] | – | 102.4 | 1.6
5 | Ac-LAREYKKIVEKAKRWLRQVLRTLR-NH2 [Peptide 1302-36, JLAREYKKIVEKAKRWLRQVLRTLRB] | – | 76.8 | 3.2
6 | Ac-LAREYKHIVEKLKRWLRQVLRTLR-NH2 [Peptide 1302-30, JLAREYKHIVEKLKRWLRQVLRTLRB] | – | 102.4 | 3.2
7 | CC[C@H](C)[C@H](NC(=O)[C@H](CCCCN)NC(=O)[C@H](CCCCN)NC(=O)[C@H](Cc1ccc(O)cc1)NC(=O)[C@H](CCC(=O)O)NC(=O)[C@H](CCCNC(=N)N)NC(=O)[C@H](C)NC(=O)[C@H](CC(C)C)NC(C)=O)C(=O)N[C@H](C(=O)N[C@@H](CCC(=O)O)C(=O)N[C@@H](CCCCN)C(=O)N[C@@H](CC(C)C)C(=O)N[C@@H](CCCCN)C(=O)N[C@@H](CCCNC(=N)N)C(=O)N[C@@H](Cc1c[nH]c2ccccc12)C(=O)N[C@@H](CC(C)C)C(=O)N[C@@H](CCCNC(=N)N)C(=O)N[C@@H](CCC(N)=O)C(=O)N[C@H](C(=O)N[C@@H](CC(C)C)C(=O)N[C@@H](CCCNC(=N)N)C(=O)N[C@H](C(=O)N[C@@H](CC(C)C)C(=O)N[C@@H](CCCNC(=N)N)C(=O)NCCOCCOCCOCCOCCOCCOCCOCCOCCOCCOCCOC(N)=O)[C@@H](C)O)C(C)C)C(C)C [Peptide 1302-5, JLAREYKKIVEKLKRWLRQVLRTLRoB] (Ac-LAREYKKIVEKLKRWLRQVLRTLR-X2) | – | 102.4 | 0.8
8 | CC[C@@H](C)[C@@H](NC(=O)[C@H](CCCCN)NC(=O)[C@H](CCCCN)NC(=O)[C@H](Cc1ccc(O)cc1)NC(=O)[C@H](CCC(=O)O)NC(=O)[C@H](CCCNC(=N)N)NC(=O)[C@H](C)NC(=O)[C@H](CC(C)C)NC(C)=O)C(=O)N[C@H](C(=O)N[C@@H](CCC(=O)O)C(=O)N[C@@H](CCCCN)C(=O)N[C@@H](CC(C)C)C(=O)N[C@@H](CCCCN)C(=O)N[C@@H](CCCNC(=N)N)C(=O)N[C@@H](Cc1c[nH]c2ccccc12)C(=O)N[C@@H](CC(C)C)C(=O)N[C@@H](CCCNC(=N)N)C(=O)N[C@@H](CCC(N)=O)C(=O)N[C@H](C(=O)N[C@@H](CC(C)C)C(=O)N[C@@H](CCCNC(=N)N)C(=O)N[C@H](C(=O)N[C@@H](CC(C)C)C(=O)N[C@@H](CCCNC(=N)N)C(N)=O)[C@@H](C)O)C(C)C)C(C)C [Peptide 1301-8, JLAREYKKiVEKLKRWLRQVLRTLRB] (Ac-LAREYKK[dI]VEKLKRWLRQVLRTLR-NH2) | – | 38.4 | 0.6
9 | CC[C@H](C)[C@H](NC(=O)[C@H](CCCCN)NC(=O)[C@H](CCCCN)NC(=O)[C@H](Cc1ccc(O)cc1)NC(=O)[C@H](CCC(=O)O)NC(=O)[C@H](CCCNC(=N)N)NC(=O)[C@H](C)NC(=O)[C@H](CC(C)C)NC(C)=O)C(=O)N[C@H](C(=O)N[C@@H](CCC(=O)O)C(=O)N[C@@H](CCCCN)C(=O)N[C@@H](CC(C)C)C(=O)N[C@@H](CCCCN)C(=O)N[C@@H](CCCNC(=N)N)C(=O)N[C@@H](Cc1c[nH]c2ccccc12)C(=O)N[C@@H](CC(C)C)C(=O)N[C@@H](CCCNC(=N)N)C(=O)N[C@@H](CCC(N)=O)C(=O)N[C@H](C(=O)N[C@@H](CC(C)C)C(=O)N[C@@H](CCCNC(=N)N)C(=O)N[C@H](C(=O)N[C@@H](CC(C)C)C(=O)N[C@H](CCCNC(=N)N)C(N)=O)[C@@H](C)O)C(C)C)C(C)C [Peptide 1301-24, JLAREYKKIVEKLKRWLRQVLRTLrB] (Ac-LAREYKKIVEKLKRWLRQVLRTL[dR]-NH2) | – | 19.2 | 0.6
